Starred links: 1 amine or outer side, 2 acyl side, 3 side chain; linkers in the order of their positions; H or OH if unused. Positions of bridges follow the written chain, without caps; N, C: chain ends. Non-standard residues stand in square brackets, D forms with d. Residues, ends and D or L forms follow the SMILES beside them. Chains are numbered I, II in the order given. Actinocin(9to1) = Cc1c2oc3c(C)ccc(C(=O)[*:1])c3nc-2c(C(=O)[*:2])c(N)c1=O; NMeV = CN[C@H](C(=O)O)C(C)C; Sar = CNCC(=O)O
How the values were obtained:
Conditions in all cases: Actinomycin D 25 microg/ml
CMV reporter (CM1 cells) = experiment: Luciferase signal half-life after Actinomycin D, CM1 cells; type: cell-based, human
Excerpt: Hep3B hepatocellular carcinoma cells were transfected by electroporation with 75 micrograms of pCM106 which had been linearized by a single ScaI cut within the vector backbone. Neomycin resistant colonies were isolated and tested for luciferase activity. Luciferase positive, neomycin resistant clones were subjected to Southern blot analysis (see below). The best clone, producing the most luciferase activity from a single, correctly integrated vector was selected for use as the CMV reporter cell line in the high throughput screen (this clone was designated CM1).
(§1) When screening for inhibitors rather than inducers of transcription, the half-life of the reporter molecule becomes a crucial parameter in determining the minimal incubation time that would be necessary to allow enough decay of reporter molecules so that the inhibition of their synthesis became visible. […] This experiment measured the combined half-life of luciferase mRNA and of the luciferase protein and compares the rate of signal decay of the CMV reporter to three other well characterized genes; H-ras, K-ras and c-erbB2.
(§2) Cells derived from clones CM1 (CMV), K2 (K-ras), H21 (H-ras) and N2 (c-erbB2) were seeded into 96-well microtiter plates and incubated overnight. […] At the times indicated in FIG. 22, cells were washed with PBS and luciferase activity of Actinomycin-treated cells determined as described in Materials and Methods. […]

[1] = test system: K-ras reporter (K2 cells); experiment: Luciferase signal half-life after Actinomycin D, K2 cells; type: cell-based, human
Excerpt: (§3) 75 micrograms of the pKRAS106 plasmid was linearized by a single restriction endonuclease cleavage within the vector backbone and electroporated into SW480 human colon carcinoma cells. Neomycin resistant clones were isolated and tested for luciferase activity. Clones testing positive for luciferase production were subjected to Southern blot analysis (see below). The best clone (producing the highest signal and carrying a single intact copy of the transfected DNA) was utilized for high throughput screening (designated clone K2).
as §1, §2

[2] = test system: H-ras reporter (H21 cells); experiment: Luciferase signal half-life after Actinomycin D, H21 cells; type: cell-based
Procedure: When screening for inhibitors rather than inducers of transcription, the half-life of the reporter molecule becomes a crucial parameter in determining the minimal incubation time that would be necessary to allow enough decay of reporter molecules so that the inhibition of their synthesis became visible. The CMV reporter cell line was therefore tested for the time dependency of luciferase activity after treatment of the cells with Actinomycin D, an inhibitor of transcription. This experiment measured the combined half-life of luciferase mRNA and of the luciferase protein and compares the rate of signal decay of the CMV reporter to three other well characterized genes; H-ras, K-ras and c-erbB2.
Cells derived from clones CM1 (CMV), K2 (K-ras), H21 (H-ras) and N2 (c-erbB2) were seeded into 96-well microtiter plates and incubated overnight. At time 0, Actinomycin D (25 microg/ml) was added. At the times indicated in FIG. 22, cells were washed with PBS and luciferase activity of Actinomycin-treated cells determined as described in Materials and Methods. The signal from the treated cells was compared to the luciferase activity of untreated controls.

[3] = test system: neu (c-erbB2) reporter (N2 cells); experiment: Luciferase signal half-life after Actinomycin D, N2 cells; type: cell-based, human
Excerpt: as §3, with “pNEU106” for “pKRAS106”, “HTB30” for “SW480”, “breast” for “colon”, “N2).” for “K2).”
as §1, §2

Cc1c2oc3c(C)ccc(C(=O)N[C@@H]4C(=O)N[C@H](C(C)C)C(=O)N5CCC[C@H]5C(=O)N(C)CC(=O)N(C)[C@@H](C(C)C)C(=O)O[C@@H]4C)c3nc-2c(C(=O)N[C@@H]2C(=O)N[C@H](C(C)C)C(=O)N3CCC[C@H]3C(=O)N(C)CC(=O)N(C)[C@@H](C(C)C)C(=O)O[C@@H]2C)c(N)c1=O [Actinomycin D] (I: T[dV]P[Sar][NMeV] / II: T[dV]P[Sar][NMeV]; ester I:1-I:C, II:1-II:C; linker I:N-II:N via Actinocin(9to1))
Signal Halflife (CMV reporter (CM1 cells)): 6.5 h
Signal Halflife [1]: 6.5 h
Signal Halflife [2]: 10 h
Signal Halflife [3]: 3 h
